Experimental data reported in patent US20250144220A1, “CONJUGATE FOR PREVENTING AND TREATING VIRAL INFECTIONS AND USE THEREOF” (priority 2021, published 2025).
pEC50: −log10 of the molar value. Where two headings read alike, the source gives them in different places.

Tests used:
Experiment in all cases: microbe, parasite or virus in culture
Type in all cases: cell-based, influenza virus H1N1
[1] = tested on: Baloxavir-resistant A/PR/8/34 (H1N1)
[2] = tested on: VX-787-resistant A/PR/8/34 (H1N1)
[3] = tested on: Oseltamivir-resistant A/Weiss/43 (H1N1)

Compound	pEC50 ([1]; Influenza A virus, MDCK, 120 h)	pEC50 ([2]; Influenza A virus, MDCK, 120 h)	pEC50 ([3]; Influenza A virus, H1N1, MDCK, 120 h)	pEC50 ([3]; read-out: EC50)	pEC50 ([1]; read-out: EC50)	pEC50 ([2]; read-out: EC50)
O=C1c2c(O)c(=O)ccn2N([C@@H]2c3ccccc3SCc3c2ccc(F)c3F)[C@@H]2COCCN12 [Baloxavir, baloxivir]	7.02	9.24				
CCC(CC)O[C@@H]1C=C(C(=O)O)C[C@H](N)[C@H]1NC(C)=O [Oseltamivir acid]	5.62	5.97	< 4.00			
CC(=O)N[C@H]1[C@H]([C@H](O)[C@H](O)CO)OC(C(=O)O)=C[C@@H]1N=C(N)N [Zanamivir, zanamivir, reference compound]				7.61	5.86	6.78
